# Columns and labels:
# [1] = target: human GCGR (Homo sapiens (Human), UniProt P47871); assay: Cellular functional assay, cAMP readout (glucagon-stimulated cAMP in HEK293 cells expressing human GCGR); format: cell-based; details: hGluc-1 HEK cells, LANCE TR-FRET, IC50 converted to Ki, average if tested more than once
# Method in brief: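 HEK293 cells stably transfected with full-length human GCGR were exposed to compound for 30 min before a 5-min challenge with […] (final) glucagon. Readout was TR-FRET (LANCE) cAMP versus standard curve; IC50s fitted by non-linear regression and converted to Ki values.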
# [2] = target: human glucagon receptor (GCGR) (Homo sapiens (Human), UniProt P47871); assay: Inhibition of 125I-glucagon binding to membranes from HEK293 cells expressing the human glucagon receptor; details: membranes of hGluc-1 HEK cells, 125I-glucagon 0.3 nM, 2 hours room temperature; IC50 converted to Ki; average if tested more than once
# Method in brief: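 Compound displacement of ¹²⁵I-glucagon (0.3 nM) was run for 2 h at room temperature in 50 mM HEPES pH 7.4 with 5 mM MgCl2, 1 mM CaCl2 and 0.2% BSA, using 6 μg/well membranes from stably transfected hGCGR HEK293 cells. Filter-bound counts gave IC50s, expressed as Ki.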
# human glucagon receptor (GCGR), sequence (P47871 26-477): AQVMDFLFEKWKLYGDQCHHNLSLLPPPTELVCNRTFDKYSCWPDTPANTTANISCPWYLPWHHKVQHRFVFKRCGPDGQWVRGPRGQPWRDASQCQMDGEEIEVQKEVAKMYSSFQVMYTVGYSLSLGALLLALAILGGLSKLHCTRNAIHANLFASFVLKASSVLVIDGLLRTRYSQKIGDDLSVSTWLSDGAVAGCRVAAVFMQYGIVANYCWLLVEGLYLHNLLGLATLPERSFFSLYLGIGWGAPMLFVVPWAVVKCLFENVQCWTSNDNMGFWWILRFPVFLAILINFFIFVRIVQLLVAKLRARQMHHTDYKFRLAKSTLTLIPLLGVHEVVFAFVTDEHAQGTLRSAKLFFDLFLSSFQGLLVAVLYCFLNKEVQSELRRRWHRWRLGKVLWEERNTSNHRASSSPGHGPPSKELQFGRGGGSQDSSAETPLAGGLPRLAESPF
# human GCGR, sequence (P47871 26-477): as above
compound,measurement,setting,value
"O=C(O)CCNC(=O)c1ccc(-c2cc(C(F)(F)F)cc(Cl)c2CNc2ccc(-c3ccc(Cl)cc3)cc2)cn1 [Compound 67, 3-(5-(3-chloro-2-(((4′-chloro-[1,1′-biphenyl]-4-yl)amino)methyl)-5-(trifluoromethyl)phenyl)picolinamido)propanoic acid]",Ki,[1],12.2 nM
same,Ki,[2],18.8 nM
"Cc1ccc(CNc2ccc(-c3ccc(Cl)cc3)cc2)c(-c2ccc(C(=O)NCCC(=O)O)nc2)c1 [Compound 68, 3-(5-(2-(((4′-chloro-[1,1′-biphenyl]-4-yl)amino)methyl)-5-methylphenyl)picolinamido)propanoic acid]",Ki,[1],151 nM
same,Ki,[2],40 nM
"Cc1cccc(CNc2ccc(-c3ccc(Cl)cc3)cc2)c1-c1ccc(C(=O)NCCC(=O)O)nc1 [Compound 69, 3-(5-(2-(((4′-chloro-[1,1′-biphenyl]-4-yl)amino)methyl)-6-methylphenyl)picolinamido)propanoic acid]",Ki,[1],500 nM
same,Ki,[2],85.2 nM
"CS(=O)(=O)c1ccc(CNc2ccc(-c3ccc(Cl)cc3)cc2)c(-c2ccc(C(=O)NCCC(=O)O)nc2)c1 [Compound 70, 3-(5-(2-(((4′-chloro-[1,1′-biphenyl]-4-yl)amino)methyl)-5-(methylsulfonyl)phenyl)picolinamido)propanoic acid]",Ki,[1],> 10400 nM
same,Ki,[2],52.2 nM
"O=C(O)CCNC(=O)c1ccc(-c2cc(C(F)(F)F)cc(C(F)(F)F)c2CNc2ccc(-c3ccc(Cl)cc3)cc2)cn1 [Compound 71, 3-(5-(2-(((4′-chloro-[1,1′-biphenyl]-4-yl)amino)methyl)-3,5-bis(trifluoromethyl)phenyl)picolinamido)propanoic acid]",Ki,[1],17.3 nM
same,Ki,[2],31.3 nM
"Cc1cc(Cl)ccc1-c1ccc(NCc2c(Cl)cc(C(F)(F)F)cc2-c2ccc(C(=O)NCCC(=O)O)nc2)cc1 [Compound 73, 3-(5-(3-chloro-2-(((4′-chloro-2′-methyl-[1,1′-biphenyl]-4-yl)amino)methyl)-5-(trifluoromethyl)phenyl)picolinamido)propanoic acid]",Ki,[1],3.7 nM
same,Ki,[2],19.5 nM
"O=C(O)CCNC(=O)c1ccc(-c2cc(C(F)(F)F)cc(Cl)c2CNc2ccc(-c3ccc(Cl)cc3)c(Cl)c2)cn1 [Compound 74, 3-(5-(3-chloro-2-(((2,4′-dichloro-[1,1′-biphenyl]-4-yl)amino)methyl)-5-(trifluoromethyl)phenyl)picolinamido)propanoic acid]",Ki,[1],7.1 nM
same,Ki,[2],14.9 nM
"Cc1cc(NCc2c(Cl)cc(C(F)(F)F)cc2-c2ccc(C(=O)NCCC(=O)O)nc2)ccc1-c1ccc(Cl)cc1 [Compound 75, 3-(5-(3-chloro-2-(((4′-chloro-2-methyl-[1,1′-biphenyl]-4-yl)amino)methyl)-5-(trifluoromethyl)phenyl)picolinamido)propanoic acid]",Ki,[1],6.7 nM
same,Ki,[2],27.8 nM
"Cc1cc(Cl)ccc1-c1ccc(NCc2cc(Cl)c(C(F)(F)F)cc2-c2ccc(C(=O)NCCC(=O)O)nc2)cc1 [Compound 77, 3-(5-(4-chloro-2-(((4′-chloro-2′-methyl-[1,1′-biphenyl]-4-yl)amino)methyl)-5-(trifluoromethyl)phenyl)picolinamido)propanoic acid]",Ki,[1],22.4 nM
same,Ki,[2],24.2 nM
"O=C(O)CCNC(=O)c1ccc(-c2cc(C(F)(F)F)c(Cl)cc2CNc2ccc(-c3ccc(Cl)cc3)c(Cl)c2)cn1 [Compound 78, 3-(5-(4-chloro-2-(((2,4′-dichloro-[1,1′-biphenyl]-4-yl)amino)methyl)-5-(trifluoromethyl)phenyl)picolinamido)propanoic acid]",Ki,[1],25 nM
same,Ki,[2],24 nM
"Cc1cc(NCc2cc(Cl)c(C(F)(F)F)cc2-c2ccc(C(=O)NCCC(=O)O)nc2)ccc1-c1ccc(Cl)cc1 [Compound 79, 3-(5-(4-chloro-2-(((4′-chloro-2-methyl-[1,1′-biphenyl]-4-yl)amino)methyl)-5-(trifluoromethyl)phenyl)picolinamido)propanoic acid]",Ki,[1],31.6 nM
same,Ki,[2],24 nM

# — US8748624B2, “Picolinamido-propanoic acid derivatives useful as glucagon receptor antagonists” (Janssen Pharmaceutica NV, priority 2011, dated 2014)
